# Target: T1, Q46 protein aggregates (Homo sapiens, UniProt P42858)
# T1 construct: fused on or other part: GST at the N-terminus, cut off with thrombin before aggregation
# Test: Q46 Radioligand Binding Assay (RBA), displacement of [3H3]MK-3328
# Settings: 5 μM Q46 protein aggregates, 10 nM ligand [3H3]MK-3328, 60 minutes at 37° C.
# Description: Q46 Radioligand Binding Assay
# For radioligand binding assays (RBA) GST-Q46 protein was generated based on a previous publication (Scherzinger et al. Cell, Vol. 90, 549-558, Aug. 8, 1997). For experiments 33 μM GST-Q46 was incubated with 150 μg/ml thrombin in assay buffer (150 mM NaCl, 50 mM Tris pH 8.0) and 2 mM CaCl2 for 16 hr at 37° C. Aggregated Q46 was pelleted by centrifugation for 5 min at 13,000 rpm in a bench top centrifuge and re-dissolved in the same volume of assay buffer. Test compounds were prepared by titration in DMSO at 11 concentrations from 33 μM to 1 nM. For the RBA, Q46 protein aggregates and test compounds were pre-incubated in assay buffer for 20 min at room temperature, in 140 μL/well in a 96-well plate (pp, round bottom). Then, ligand was added in 10 μL/well and incubated for 60 minutes at 37° C. Final assay concentrations were […] test compound, 5 μM Q46 protein (equivalent monomer concentration) and 10 nM ligand [^3H3]MK-3328 (Harrision et al., ACS Med Chem. Lett., 2 (2011), pp 498-502). Samples were transferred onto GF/B filter plates and washed 2× with 200 μL PBS using a Filtermate Harvester. After drying filter plates for 1 hour at 37° C., the back of the plates was sealed with foil and 30 μL/well scintillation fluid (Packard MicroScint 40) was added, incubated for 15 min in the dark and counted in a TopCount reader. For analysis, replicate data from independent assay plates were normalized towards 0% and 100% inhibition using control wells of vehicle (0% inhibition) and 3 μM unlabelled MK-3328 (100% inhibition). IC50 values were determined with a sigmoidal inhibition model with four variables (top, bottom, slope, IC50) in a global fit using the normalized replicate data.
# T1 sequence (P42858 with tags, fused parts or gaps with the stated changes, form open): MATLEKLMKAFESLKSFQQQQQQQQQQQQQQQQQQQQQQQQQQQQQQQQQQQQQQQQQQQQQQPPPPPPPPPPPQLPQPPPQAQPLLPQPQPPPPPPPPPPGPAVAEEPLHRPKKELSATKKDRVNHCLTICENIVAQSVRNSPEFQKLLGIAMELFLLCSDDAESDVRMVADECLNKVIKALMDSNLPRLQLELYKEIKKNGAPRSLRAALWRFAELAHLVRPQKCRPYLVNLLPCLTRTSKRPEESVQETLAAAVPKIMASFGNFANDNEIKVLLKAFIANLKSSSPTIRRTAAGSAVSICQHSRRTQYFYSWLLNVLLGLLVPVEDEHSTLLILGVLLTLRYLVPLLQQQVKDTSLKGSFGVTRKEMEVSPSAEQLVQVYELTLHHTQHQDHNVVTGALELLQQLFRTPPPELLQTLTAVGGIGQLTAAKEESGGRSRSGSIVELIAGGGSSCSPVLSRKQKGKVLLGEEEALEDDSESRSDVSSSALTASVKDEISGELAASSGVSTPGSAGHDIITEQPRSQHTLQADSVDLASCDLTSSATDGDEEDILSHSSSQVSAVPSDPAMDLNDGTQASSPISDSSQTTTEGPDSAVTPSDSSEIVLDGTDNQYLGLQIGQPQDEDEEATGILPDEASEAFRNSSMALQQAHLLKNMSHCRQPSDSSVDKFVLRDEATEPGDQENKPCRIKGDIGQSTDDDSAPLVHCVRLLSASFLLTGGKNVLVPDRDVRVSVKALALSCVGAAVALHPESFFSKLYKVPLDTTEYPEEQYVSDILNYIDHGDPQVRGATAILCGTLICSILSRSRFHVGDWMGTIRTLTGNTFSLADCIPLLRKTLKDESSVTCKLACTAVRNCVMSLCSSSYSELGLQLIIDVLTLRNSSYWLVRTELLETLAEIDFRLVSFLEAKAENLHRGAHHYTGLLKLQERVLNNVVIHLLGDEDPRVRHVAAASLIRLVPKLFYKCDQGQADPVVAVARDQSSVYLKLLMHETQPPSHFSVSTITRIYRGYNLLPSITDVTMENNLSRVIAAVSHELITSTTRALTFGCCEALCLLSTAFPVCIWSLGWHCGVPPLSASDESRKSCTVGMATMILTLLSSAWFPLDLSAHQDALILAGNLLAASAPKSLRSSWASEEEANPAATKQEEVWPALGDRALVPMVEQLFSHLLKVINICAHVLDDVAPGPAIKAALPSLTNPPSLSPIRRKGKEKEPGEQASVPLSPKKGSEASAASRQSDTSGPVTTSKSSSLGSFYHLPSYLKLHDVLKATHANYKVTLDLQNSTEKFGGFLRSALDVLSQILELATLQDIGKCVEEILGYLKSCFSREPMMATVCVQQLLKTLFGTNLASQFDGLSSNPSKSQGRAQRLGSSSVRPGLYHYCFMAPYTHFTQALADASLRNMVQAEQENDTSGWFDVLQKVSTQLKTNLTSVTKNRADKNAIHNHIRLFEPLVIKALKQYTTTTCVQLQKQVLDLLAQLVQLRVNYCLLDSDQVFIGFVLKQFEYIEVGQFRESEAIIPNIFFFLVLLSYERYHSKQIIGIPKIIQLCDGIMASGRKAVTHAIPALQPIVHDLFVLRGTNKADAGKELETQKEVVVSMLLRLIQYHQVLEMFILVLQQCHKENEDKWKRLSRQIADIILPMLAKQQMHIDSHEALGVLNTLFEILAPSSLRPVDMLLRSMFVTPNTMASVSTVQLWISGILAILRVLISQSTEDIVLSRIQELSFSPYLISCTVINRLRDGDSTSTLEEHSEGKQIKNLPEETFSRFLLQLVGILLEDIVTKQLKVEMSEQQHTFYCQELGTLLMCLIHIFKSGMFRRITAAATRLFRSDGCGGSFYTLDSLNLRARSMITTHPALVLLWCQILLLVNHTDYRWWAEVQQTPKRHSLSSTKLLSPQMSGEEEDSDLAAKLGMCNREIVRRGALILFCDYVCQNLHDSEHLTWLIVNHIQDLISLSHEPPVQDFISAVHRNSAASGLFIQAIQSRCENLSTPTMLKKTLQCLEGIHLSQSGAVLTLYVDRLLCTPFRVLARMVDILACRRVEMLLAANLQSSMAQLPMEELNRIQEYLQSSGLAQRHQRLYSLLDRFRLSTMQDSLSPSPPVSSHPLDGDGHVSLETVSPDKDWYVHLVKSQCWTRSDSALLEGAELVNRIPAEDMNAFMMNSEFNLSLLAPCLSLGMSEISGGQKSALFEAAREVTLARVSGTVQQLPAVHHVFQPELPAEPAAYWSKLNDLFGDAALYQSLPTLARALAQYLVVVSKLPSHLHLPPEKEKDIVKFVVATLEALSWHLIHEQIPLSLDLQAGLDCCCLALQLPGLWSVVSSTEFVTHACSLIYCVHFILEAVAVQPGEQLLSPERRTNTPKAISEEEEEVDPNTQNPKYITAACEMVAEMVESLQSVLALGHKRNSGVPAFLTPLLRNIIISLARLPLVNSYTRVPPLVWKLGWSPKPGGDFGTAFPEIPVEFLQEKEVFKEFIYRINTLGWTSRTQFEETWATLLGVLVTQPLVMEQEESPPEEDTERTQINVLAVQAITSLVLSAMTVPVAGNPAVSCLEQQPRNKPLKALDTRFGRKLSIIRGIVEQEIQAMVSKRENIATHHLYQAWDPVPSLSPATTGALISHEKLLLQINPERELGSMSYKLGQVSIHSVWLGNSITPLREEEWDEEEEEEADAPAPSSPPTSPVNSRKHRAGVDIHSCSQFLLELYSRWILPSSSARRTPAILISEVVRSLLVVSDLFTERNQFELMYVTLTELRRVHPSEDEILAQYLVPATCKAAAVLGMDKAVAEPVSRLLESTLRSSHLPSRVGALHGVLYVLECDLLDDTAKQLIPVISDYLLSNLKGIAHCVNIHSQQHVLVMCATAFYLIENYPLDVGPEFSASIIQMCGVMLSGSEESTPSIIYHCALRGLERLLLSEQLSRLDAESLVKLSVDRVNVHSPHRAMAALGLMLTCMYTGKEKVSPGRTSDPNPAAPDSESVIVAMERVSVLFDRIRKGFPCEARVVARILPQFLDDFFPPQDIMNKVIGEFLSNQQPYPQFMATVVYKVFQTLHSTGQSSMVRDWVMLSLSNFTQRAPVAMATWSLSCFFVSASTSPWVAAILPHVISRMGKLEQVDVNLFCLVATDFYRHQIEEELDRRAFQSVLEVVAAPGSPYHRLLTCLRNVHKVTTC
row,IC50 [nM],Structure (SMILES)
1,< 100,"COc1ccc(COc2ccc3c(c2)CN(c2ncccc2C#N)C3)nc1 [2-{5-[(5-methoxypyridin-2-yl)methoxy]-2,3-dihydro-1H-isoindol-2-yl}pyridine-3-carbonitrile]"
2,< 100,"N#Cc1cnccc1N1Cc2ccc(OCc3ccc(O)cn3)cc2C1 [4-{5-[(5-hydroxypyridin-2-yl)methoxy]-2,3-dihydro-1H-isoindol-2-yl}pyridine-3-carbonitrile]"
3,< 100,"COc1ccc(COc2ccc3c(c2)CN(c2ccncc2C#N)C3)nc1 [4-{5-[(5-methoxypyridin-2-yl)methoxy]-2,3-dihydro-1H-isoindol-2-yl}pyridine-3-carbonitrile]"
4,< 100,"N#Cc1cnccc1N1Cc2ccc(OCc3cncnc3)cc2C1 [4-[5-(pyrimidin-5-ylmethoxy)-2,3-dihydro-1H-isoindol-2-yl]pyridine-3-carbonitrile]"
5,< 100,"COc1ccc(COc2ccc3c(c2)CN(c2ccncc2)C3=O)nc1 [5-[(5-methoxypyridin-2-yl)methoxy]-2-(pyridin-4-yl)-2,3-dihydro-1H-isoindol-1-one]"
6,< 100,"COc1ccc2c(c1)CN(c1ccncc1C#N)C2 [4-(5-methoxy-2,3-dihydro-1H-isoindol-2-yl)pyridine-3-carbonitrile]"
7,< 100,"COc1ccc2c(c1)CN(c1ncncc1C#N)C2 [4-(5-methoxy-2,3-dihydro-1H-isoindol-2-yl)pyrimidine-5-carbonitrile]"
8,< 100,"COc1ccc2c(c1)CN(c1ncccc1C#N)C2 [2-(5-methoxy-2,3-dihydro-1H-isoindol-2-yl)pyridine-3-carbonitrile]"
9,< 100,"COc1cnc(COc2ccc3c(c2)CN(c2ccncc2)C3)cn1 [5-[(5-methoxypyrazin-2-yl)methoxy]-2-(pyridin-4-yl)-2,3-dihydro-1H-isoindole]"
10,< 100,"COc1ccc(COc2ccc3c(c2)CN(c2ncncc2C#N)C3)nc1 [4-{5-[(5-methoxypyridin-2-yl)methoxy]-2,3-dihydro-1H-isoindol-2-yl}pyrimidine-5-carbonitrile]"
11,< 100,"N#Cc1cccnc1N1Cc2ccc(OCc3cncnc3)cc2C1 [2-[5-(pyrimidin-5-ylmethoxy)-2,3-dihydro-1H-isoindol-2-yl]pyridine-3-carbonitrile]"
12,< 100,"N#Cc1cncnc1N1Cc2ccc(OCc3ccccc3)cc2C1 [4-[5-(benzyloxy)-2,3-dihydro-1H-isoindol-2-yl]pyrimidine-5-carbonitrile]"
13,< 100,"COc1ccc(COc2ccc3c(c2)CN(c2ccc(=O)n(C)n2)C3)nc1 [6-{5-[(5-methoxypyridin-2-yl)methoxy]-2,3-dihydro-1H-isoindol-2-yl}-2-methyl-2,3-dihydropyridazin-3-one]"
14,< 100,"N#Cc1cncnc1N1Cc2ccc(OCc3ccc(O)cn3)cc2C1 [4-{5-[(5-hydroxypyridin-2-yl)methoxy]-2,3-dihydro-1H-isoindol-2-yl}pyrimidine-5-carbonitrile]"

# System: recombinant tau and amyloid β1-42 (Aβ1-42) aggregates
# Test: not given
# Settings: higher affinity for the tau aggregates than Aβ1-42 aggregates; cited from earlier work
row,Structure (SMILES),ratio of Kd values (affinity for tau aggregates versus Aβ1-42 aggregates)
1,"CN(C)c1ccc(/C=C/c2nc3ccc(I)cc3[nH]2)cc1 [SBIM-3, 4-[(E)-2-(6-iodo-1H-benzimidazol-2-yl)ethenyl]-N,N-di methyl aniline]",2.73

# System: NFT in sections of AD brain tissue
# Test: not given
# Settings: in vitro autoradiography ([125I]SBIM-3) and fluorescent staining (SBIM-3); cited from earlier work
row,Structure (SMILES),binding to NFT in sections of AD brain tissue
1,"CN(C)c1ccc(/C=C/c2nc3ccc(I)cc3[nH]2)cc1 [SBIM-3, 4-[(E)-2-(6-iodo-1H-benzimidazol-2-yl)ethenyl]-N,N-di methyl aniline]",bound NFT in sections of AD brain tissue
